What follows are molecules tested against T1, Dimer of Gag-Pol polyprotein [489-587] (Human immunodeficiency virus 1, UniProt P12497) (assay: Protease Inhibition Assay). Conditions: pH 4.7; 37 °C.
T1 construct: 489-587
Method: For determination of IC50 values, HIV-1 protease was added to assay buffer containing inhibitor and the substrate (H-His-Lys-Ala-Arg-Val-Leu- (p-NO2) Phe-Glu-Ala-norleucine-Ser-NH2). The Leu- (p-NO2) Phe bond of the substrate was cleaved by the enzyme, and the substrate and products were separated by reversed-phase HPLC. Absorbance was measured at 220 nm, peak areas were determined, and percentage conversion to product was calculated.

Compound	IC50 [nM]
O=c1oc(-c2ccccc2)cc(O)c1Sc1ccccc1	3000
O=C(CCCCC1CCCCC1)OCC(O)C1OC(=O)C(O)C1=O (stereo unspecified) [2-(3,4-dihydroxy-5-oxo-2,5-dihydrofuran-2-yl)-2-hydroxyethyl 5-cyclohexylpentanoate]	29000
O=C(O)c1cc(-c2ccc(Cl)cc2)nc2cc(O)ccc12 [2-(4-chlorophenyl)-7-hydroxyquinoline-4-carboxylic acid]	6900
O=C(O)COc1ccc(-c2cc(O)c(SCCc3ccccc3)c(=O)o2)cc1 [2-(4-{4-hydroxy-2-oxo-3-[(2-phenylethyl)sulfanyl]-2H-pyran-6-yl}phenoxy)acetic acid]	160
O=C(CCc1ccc(Br)cc1)c1ccc(CC(=O)c2ccccc2-c2ccccc2C(=O)O)cc1 [2-[2-(2-{4-[3-(4-bromophenyl)propanoyl]phenyl}acetyl)phenyl]benzoic acid]	19000
O=C(O)c1cc(O)c(O)cc1C(=O)c1cc(Cl)ccc1Cl [2-[(2,5-dichlorophenyl)carbonyl]-4,5-dihydroxybenzoic acid]	8100
O=c1oc(-c2ccccc2)cc(O)c1SCc1ccccc1 [3-(benzylsulfanyl)-4-hydroxy-6-phenyl-2H-pyran-2-one]	1700
Cc1cccc(-c2cc(O)c(Sc3ccccc3C(C)(C)C)c(=O)o2)c1 [3-[(2-tert-butylphenyl)sulfanyl]-4-hydroxy-6-(3-methylphenyl)-2H-pyran-2-one]	7
CC(C)(C)c1ccccc1Sc1c(O)cc(-c2ccccc2)oc1=O [3-[(2-tert-butylphenyl)sulfanyl]-4-hydroxy-6-phenyl-2H-pyran-2-one]	17
O=c1oc2ccccc2c(O)c1Cc1ccccc1 [3-benzyl-4-hydroxy-2H-chromen-2-one]	120000
Cc1ccccc1Sc1c(O)cc(-c2ccccc2)oc1=O [4-hydroxy-3-[(2-methylphenyl)sulfanyl]-6-phenyl-2H-pyran-2-one]	420
O=c1oc(-c2ccc(O)cc2)cc(O)c1SCCc1ccccc1 [4-hydroxy-6-(4-hydroxyphenyl)-3-[(2-phenylethyl)sulfanyl]-2H-pyran-2-one]	520
O=c1oc(-c2ccccc2)cc(O)c1SCCc1ccccc1 [4-hydroxy-6-phenyl-3-[(2-phenylethyl)sulfanyl]-2H-pyran-2-one]	1300
CC(C)c1ccccc1Sc1c(O)cc(-c2ccccc2)oc1=O [4-hydroxy-6-phenyl-3-{[2-(propan-2-yl)phenyl]sulfanyl}-2H-pyran-2-one]	37
O=c1cc(Cc2cccc(Cl)c2)[nH][nH]1 [5-[(3-chlorophenyl)methyl]-2,3-dihydro-1H-pyrazol-3-one]	29000

Same assay, conditions: pH 6.2; 37 °C

Compound	IC50 [nM]
CC(C)c1ccccc1Sc1c(O)cc(-c2ccccc2)oc1=O [4-hydroxy-6-phenyl-3-{[2-(propan-2-yl)phenyl]sulfanyl}-2H-pyran-2-one]	690
